Reference: patent EP2768830B1, “APOPTOSIS-INDUCING AGENTS FOR THE TREATMENT OF CANCER AND IMMUNE AND AUTOIMMUNE DISEASES” (AbbVie Inc., priority 2011, dated 2013)

Columns and labels:
[1] = test system: mouse FL5.12 cells transfected with Bcl-XL; test: FL5.12 cellular assay (cell viability, CellTiter-Glo); assay type: cell-based; details: Mus musculus; FL5.12 cells transfected with Bcl-XL, IL-3-depleted, 3% FBS assay media, 24 hours, CellTiter-Glo; read-out: FL5.12 Bcl-xL, - IL3, EC 50;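 note: each EC50 determination derived from duplicate measurements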
Description: For assaying the compound activity, the cells were exchanged into an IL-3-depleted deprivation media, which was identical to the growth media except for the absence of FBS and WEHI-3B conditional media, for 2 days. Then the cells were exchanged to 3% FBS assay media (RPMI with 2 mM glutamine, 1% 100 mM sodium pyruvate, 2% 1 M HEPES, 4 µL/L of β-mercaptoethanol, 1% penicillin-streptomycin, 3% FBS). Compounds in series dilutions were added, and the cells were cultured for 24 hours. Compounds in series dilutions were added, and the cells were cultured for 24 hours. Cell viability was assayed using the CellTiter-Glo assay (Promega Corp., Madison, WI) according to the manufacturer instructions. Individual determinations were the result of duplicate values.

GST-Bcl-2 = target: T1, GST-Bcl-2 (Homo sapiens, UniProt P10415); details: F-Bak probe, read-out: Ki, competition with F-Bak for the Bcl-2 binding site using the TR-FRET binding assay
T1 construct: made in house
T1 sequence (P10415 whole entry): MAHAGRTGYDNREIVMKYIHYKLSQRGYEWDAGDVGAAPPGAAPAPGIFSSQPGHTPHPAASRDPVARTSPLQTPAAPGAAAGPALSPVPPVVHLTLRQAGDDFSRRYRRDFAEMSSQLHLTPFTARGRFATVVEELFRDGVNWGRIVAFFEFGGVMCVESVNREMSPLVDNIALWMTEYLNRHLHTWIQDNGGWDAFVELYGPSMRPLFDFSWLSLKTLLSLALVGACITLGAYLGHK

GST-Bcl-xL = GST-Bcl-xL (Homo sapiens, UniProt Q07817); details: read-out: TR-FRET binding Bcl-xL Ki
Sequence of GST-Bcl-xL (Q07817 whole entry): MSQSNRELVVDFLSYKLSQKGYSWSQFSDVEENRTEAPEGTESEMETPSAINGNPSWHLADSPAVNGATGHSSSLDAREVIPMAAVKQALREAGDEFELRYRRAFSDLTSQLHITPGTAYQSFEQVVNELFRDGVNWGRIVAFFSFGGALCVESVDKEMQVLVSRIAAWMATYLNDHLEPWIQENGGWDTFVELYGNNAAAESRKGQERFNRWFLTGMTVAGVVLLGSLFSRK

Structure (SMILES)	EC50 [1] [nM]	Ki (GST-Bcl-2) [nM]	Ki (GST-Bcl-xL) [nM]
Cc1c(-c2ccc(N3CCc4cccc(C(=O)Nc5nc6ccccc6s5)c4C3)nc2C(=O)O)cnn1Cc1ccccc1 [Example 20, 6-[8-(1,3-benzothiazol-2-ylcarbamoyl)-3,4-dihydroisoquinolin-2(1H)-yl]-3-(1-benzyl-5-methyl-1H-pyrazol-4-yl)pyridine-2-carboxylic acid]	13	70	2
Cc1c(-c2ccc(N3CCc4cccc(C(=O)Nc5nc6ccccc6s5)c4C3)nc2C(=O)O)cnn1CC1CCCOC1 (stereo not shown) [Example 66, 6-[8-(1,3-benzothiazol-2-ylcarbamoyl)-3,4-dihydroisoquinolin-2(1H)-yl]-3-[5-methyl-1-(tetrahydro-2H-pyran-3-ylmethyl)-1H-pyrazol-4-yl]pyridine-2-carboxylic acid]	60		3
O=C(Nc1nc2ccccc2s1)c1cccc2c1CN(c1ccc(-c3cnn(Cc4ccc5ccccc5c4)c3)c(C(=O)O)n1)CC2 [Example 28, 6-[8-(1,3-benzothiazol-2-ylcarbamoyl)-3,4-dihydroisoquinolin-2(1H)-yl]-3-[1-(naphthalen-2-ylmethyl)-1H-pyrazol-4-yl]pyridine-2-carboxylic acid]	> 1000		33
COCCC(c1ccccc1)n1cc(-c2ccc(N3CCc4cccc(C(=O)Nc5nc6ccccc6s5)c4C3)nc2C(=O)O)cn1 (stereo not shown) [Example 93, 6-[8-(1,3-benzothiazol-2-ylcarbamoyl)-3,4-dihydroisoquinolin-2(1H)-yl]-3-[1-(3-methoxy-1-phenylpropyl)-1H-pyrazol-4-yl]pyridine-2-carboxylic acid]	295		16
Cc1c(-c2ccc(N3CCc4cccc(C(=O)Nc5nc6ccccc6s5)c4C3)nc2C(=O)O)cnn1CC1(OCCN2CCS(=O)(=O)CC2)CCCCC1 [Example 167, 6-[8-(1,3-benzothiazol-2-ylcarbamoyl)-3,4-dihydroisoquinolin-2(1H)-yl]-3-[1-({1-[2-(1,1-dioxidothiomorpholin-4-yl)ethoxy]cyclohexyl}methyl)-5-methyl-1H-pyrazol-4-yl]pyridine-2-carboxylic acid]	81		< 0.1
CCc1c(-c2ccc(N3CCc4cccc(C(=O)Nc5nc6ccccc6s5)c4C3)nc2C(=O)O)cnn1CC1CCCCC1 [Example 84, 6-[8-(1,3-benzothiazol-2-ylcarbamoyl)-3,4-dihydroisoquinolin-2(1H)-yl]-3-[1-(cyclohexylmethyl)-5-ethyl-1H-pyrazol-4-yl]pyridine-2-carboxylic acid]	12		0.7
